The test system of series [1] is SMN2-luc reporter cell line. In words: SMN2-luciferase. Conditions: 24 h. It counts as cell-based.
A short description of another series: mouse pharmacokinetics. Conditions: for Cmax: plasma, plasma Cmax. The series is classed as in vivo.
For series [2], the system named is LC3-I/II and p62 in HEK293 cells. In words: autophagy markers immunoblot. Conditions: 8 h. It counts as cell-based. A general note: In western blotting, separated proteins are transferred to a membrane and probed.
Another series has as its target SMN-luc fusion (UniProt P08659+Q16637). Briefly: SMN-luc protein stability with cycloheximide. As to conditions: with cycloheximide 10 µM, compound 10 µM. The series is classed as cell-based.
The test system of series [3] is renilla luciferase protein. In words: Renilla-luc protein stability with cycloheximide. As to conditions: with cycloheximide 10 µM, compound 10 µM.
For the next series, the system named is severe SMA mice (SMNΔ7). As to conditions: severe SMA mice (SMNΔ7) printed for 5; cited from earlier work.
Series [4] in a line: plasma protein binding, human plasma. It counts as in vitro ADME.
For series [5], the system named is p53 and p21-Cip1 in HEK293 cells. In words: levels of short-lived proteins p53 and p21. It counts as cell-based. Conditions: alone or after cycloheximide.
For another series, the target named is recombinant luciferase (Photinus pyralis, UniProt P08659). Briefly: recombinant luciferase activity. It counts as biochemical.
Sequence of recombinant luciferase (P08659 whole entry): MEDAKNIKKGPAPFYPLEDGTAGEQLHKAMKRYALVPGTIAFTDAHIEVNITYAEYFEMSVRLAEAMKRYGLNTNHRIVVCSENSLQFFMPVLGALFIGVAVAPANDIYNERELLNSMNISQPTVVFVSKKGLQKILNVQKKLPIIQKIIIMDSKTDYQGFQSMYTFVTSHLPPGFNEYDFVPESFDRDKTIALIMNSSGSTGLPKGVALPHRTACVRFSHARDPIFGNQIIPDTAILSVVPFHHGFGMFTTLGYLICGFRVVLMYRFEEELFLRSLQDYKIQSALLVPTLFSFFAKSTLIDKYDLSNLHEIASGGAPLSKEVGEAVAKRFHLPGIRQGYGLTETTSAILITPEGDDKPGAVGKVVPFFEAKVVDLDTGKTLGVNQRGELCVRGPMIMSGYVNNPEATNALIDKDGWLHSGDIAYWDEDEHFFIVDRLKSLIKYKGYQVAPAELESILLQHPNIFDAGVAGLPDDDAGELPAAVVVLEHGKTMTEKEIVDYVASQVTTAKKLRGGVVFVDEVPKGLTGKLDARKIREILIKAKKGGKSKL
For series [6], the system named is SMN-luciferase mRNA. Briefly: qRT-PCR of SMN-luciferase mRNA. It counts as cell-based. As to conditions: 1, 10 µM, 24 h. For orientation: In qPCR the cycle at which signal appears reflects the starting amount.
In a further series the test system is SMN2 reporter cells. In words: constant ratio combination experiment in SMN2 reporter cells. It counts as cell-based.
A short description of series [7]: plasma protein binding, mouse plasma. It counts as in vitro ADME.
A short description of series [8]: kinetic solubility at pH 7.4. It counts as physicochemical. Conditions: aqueous medium (buffer not named).
The next series relates to 58 kinase panel. In words: 58 kinase panel. It counts as biochemical. Conditions: 10 µM.
The test system of series [9] is polyubiquitinated proteins in HEK293 cells. Briefly: polyubiquitinated proteins immunoblot. The series is classed as cell-based. As to conditions: for effect on basal level of polyubiquitinated proteins: 1 and 10 µM.
The subject of series [10] is MBP-HPV-16 E6 mediated degradation of p53. In words: HPV16 E6 mediated p53 in vitro degradation assay. It counts as biochemical. As to conditions: preincubation of rabbit reticulocyte lysates, 30 min.
The subject of the next series is SV40 reporter cells. Briefly: SV40 promoter luciferase counterscreen. It counts as cell-based. Background: The purpose of a counterscreen is to sort out artefacts and off-target activity.
The test system of another series is SH5Y5Y cells. Briefly: cell viability. It counts as cell-based. As to conditions: up to 100× its EC50, 48 h.
The target in a further series is hERG (Homo sapiens, UniProt Q12809). In words: hERG safety profiling. Conditions: 10 µM.
Sequence of hERG (Q12809 whole entry): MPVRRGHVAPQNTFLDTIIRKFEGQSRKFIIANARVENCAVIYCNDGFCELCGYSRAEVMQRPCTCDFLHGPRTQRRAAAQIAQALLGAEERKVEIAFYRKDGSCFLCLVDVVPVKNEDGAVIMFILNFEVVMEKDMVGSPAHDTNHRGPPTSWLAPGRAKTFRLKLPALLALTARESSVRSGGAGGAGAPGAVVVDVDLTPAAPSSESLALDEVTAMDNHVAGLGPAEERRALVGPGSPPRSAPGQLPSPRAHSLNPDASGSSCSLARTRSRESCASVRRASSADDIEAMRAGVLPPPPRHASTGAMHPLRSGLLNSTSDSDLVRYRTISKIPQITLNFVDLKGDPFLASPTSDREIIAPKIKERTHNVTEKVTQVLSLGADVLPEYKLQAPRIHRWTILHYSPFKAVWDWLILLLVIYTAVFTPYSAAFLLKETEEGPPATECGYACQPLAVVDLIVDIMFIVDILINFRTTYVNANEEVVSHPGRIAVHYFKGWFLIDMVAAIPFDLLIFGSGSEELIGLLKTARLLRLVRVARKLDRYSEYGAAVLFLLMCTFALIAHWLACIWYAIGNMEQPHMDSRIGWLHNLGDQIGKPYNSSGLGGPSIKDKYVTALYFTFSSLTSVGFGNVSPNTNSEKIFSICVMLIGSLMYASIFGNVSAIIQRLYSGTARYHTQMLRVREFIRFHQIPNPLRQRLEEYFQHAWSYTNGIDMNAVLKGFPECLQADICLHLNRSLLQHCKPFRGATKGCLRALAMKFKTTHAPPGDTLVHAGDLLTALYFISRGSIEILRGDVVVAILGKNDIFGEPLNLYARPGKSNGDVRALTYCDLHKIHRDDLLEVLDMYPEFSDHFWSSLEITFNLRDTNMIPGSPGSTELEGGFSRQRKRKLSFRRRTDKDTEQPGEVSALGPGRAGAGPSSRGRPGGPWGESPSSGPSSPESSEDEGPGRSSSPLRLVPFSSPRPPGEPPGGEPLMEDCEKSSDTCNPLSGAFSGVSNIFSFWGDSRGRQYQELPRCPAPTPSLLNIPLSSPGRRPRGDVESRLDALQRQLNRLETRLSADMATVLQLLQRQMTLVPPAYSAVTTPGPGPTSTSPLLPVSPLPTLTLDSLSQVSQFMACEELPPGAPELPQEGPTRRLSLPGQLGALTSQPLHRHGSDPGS
For series [11], the system named is 64 target broad panel (e.g., GPCRs and ion channels). Briefly: 64 target broad panel screen. Conditions: 10 µM.
A short description of a further series: acid stability in HCl. The series is classed as physicochemical. As to conditions: 0.1 and 1 N HCL, 37 °C, each time point 1, 2, 4, 6, 24 h, LCMS.
The target in series [12] is endogenous SMN protein in HEK293 cells (Homo sapiens, UniProt Q16637). Briefly: pulse-chase SMN protein half-life. The series is classed as cell-based. As to conditions: 10 µM.
Sequence of endogenous SMN protein in HEK293 cells (Q16637 whole entry): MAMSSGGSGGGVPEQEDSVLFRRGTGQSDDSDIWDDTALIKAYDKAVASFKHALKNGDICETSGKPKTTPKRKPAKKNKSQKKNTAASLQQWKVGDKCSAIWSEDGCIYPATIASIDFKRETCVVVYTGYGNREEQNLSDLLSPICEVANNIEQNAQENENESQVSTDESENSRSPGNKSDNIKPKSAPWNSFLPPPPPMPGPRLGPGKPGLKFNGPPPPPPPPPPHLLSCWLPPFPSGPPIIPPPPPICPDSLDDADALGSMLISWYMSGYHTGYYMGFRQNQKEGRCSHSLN
Series [13] has as its system SMN-luciferase mRNA. As to conditions: cited from earlier work.
The subject of series [14] is human SMN protein in 3813T fibroblasts. Conditions: cited from earlier work.

Values after ≈ are worked out from the molar mass of the structure shown. Read-outs that look alike come from different tables or passages of the source. Peptide text beside a SMILES is read from it. * marks the point of attachment. Cbz = O=C(OCc1ccccc1)*

As to `O=C(Nc1ncc(C2CCC2)s1)c1ccc(F)c(Cl)c1` [Compound 26, 3-Chloro-N-(5-cyclobutylthiazol-2-yl)-4-fluorobenzamide], the Emax in series [1] (read-out: % Activation) is 100 ± 16%.

Consider `CC(C)c1cc(C(=O)Nc2ccccn2)no1` [Compound 4m, 5-Isopropyl-N-(pyridin-2-yl)isoxazole-3-carboxamide], for which, in the series “mouse pharmacokinetics” (20 mpk ip, 20 mg/kg), the “brain Cmax” value turned out to be 6 ng/mL and the “plasma Cmax” value is listed as 3 ng/mL. Moreover, the “plasma and brain levels after 30 min” value in the series “mouse pharmacokinetics” (ip 20 mg/kg) is given as “below the levels of detection”.

In the case of `CCN(CC)CCCC(C)Nc1ccnc2cc(Cl)ccc12` (stereo not drawn) [Chloroquine, reference compound], in [2], the “effect on p62 and LC-3 II protein levels” value is “increased”.

`O=C(CCCCCCC(=O)Nc1ccccc1)NO` [SAHA, suberoylanilide hydroxamic acid, reference compound]: the “stabilization of SMN-luc fusion” value at SMN-luc fusion is listed as “Neither”. In addition, in series [3], the “stabilization of renilla luciferase protein” value is recorded as “Neither”.

Regarding `COc1cc2c(c(OC)c1OC)C(c1cc(Br)ccc1F)CC(=O)N2` (stereo not drawn) [Compound 5, reference compound], the “stabilization of SMN-luc fusion” value at SMN-luc fusion is on record as “Neither”. Besides, the “stabilization of renilla luciferase protein” value in series [3] is on record as “Neither”. For the same molecule, the in vivo activity entry with severe SMA mice (SMNΔ7) is “increases SMN protein and the survival”.

In the case of `O=C(Nc1ncc(C2(O)CCC2)s1)c1ccc(F)c(Cl)c1` [Compound 27, 3-Chloro-4-fluoro-N-(5-(1-hydroxycyclobutyl)thiazol-2-yl)-benzamide], at SMN-luc fusion, the “stabilization of SMN-luc fusion” value is on record as “stabilized”. Further, the “free fraction in human plasma” value in [4] is on record as 3.5 % free. Moreover, the “effect on cellular levels of p53 and p21-Cip1” value in series [5] is on record as “did not alter”. The peak concentration (Cmax) in the series “mouse pharmacokinetics” (ip, 20 mg/kg, ip 20 mg/kg) is 23 µM; in the series “mouse pharmacokinetics” (po, 20 mg/kg, adult mice, orally 20 mg/kg), 0.9 µM. Also, the “effect on recombinant luciferase protein in vitro” value on recombinant luciferase is given as “minimal effects”. Further, the “effect on SMN mRNA expression and exon 7 inclusion” value in the series with SMN-luciferase mRNA [6] is on record as “did not alter SMN mRNA expression or exon 7 inclusion”. Moreover, the “SMN2-luc level on combined exposure with 4” value in the series on SMN2 reporter cells (in combination with 4, 24 h) is given as “did not result in additive or above additive levels”. Besides, the “SMN2-luc level on combined exposure with 5” value with SMN2 reporter cells (in combination with transcriptional activator 5, 24 h) is “an activation above the theoretical additive was observed”. Moreover, the “free fraction in mouse plasma” value in series [7] amounted to 4.7 % free. In series [8], this molecule came in with a solubility of roughly 10 µg/mL (≈ 30.6 µM). Moreover, the “inhibition in 58 kinase panel” value in the series with 58 kinase panel is listed as less than 50%. Further, the “effect on basal level of polyubiquitinated proteins” value in series [9] is “no effect”. For the same molecule, the “inhibition of MBP-HPV-16 E6 mediated degradation of p53” value in [10] was “no inhibition”. Also, the “effect on luc levels expressed from a minimal SV40 promoter” value in the series on SV40 reporter cells is on record as “minimal effects”. In the series with SH5Y5Y cells, the “effect on viability of SH5Y5Y cells” value is on record as “no effect”. For the same molecule, the “inhibition of hERG activity” value on hERG is listed as less than 50%. For the same molecule, in series [2], the “effect on p62 and LC-3 II protein levels” value is reported as “did not alter”. Also, the “inhibition of 64 other targets” value in [11] is less than 50%. The degradation in acid entry in “acid stability in HCl” is given as “less than 5%”.

Turning to `CC(C)C[C@@H](C=O)NC(=O)[C@H](CC(C)C)NC(=O)[C@H](CC(C)C)NC(=O)OCc1ccccc1` [MG-132] (Cbz-Leu-Leu-Leu-aldehyde), in series [12], the “effect on SMN protein half-life” value is recorded as “increased”. The “effect on basal level of polyubiquitinated proteins” value in series [9] is reported as “increased”. Also, the “inhibition of cycloheximide-induced reduction of polyubiquitinated proteins” value in series [9] (2 h pretreatment then cycloheximide 10 µM) is recorded as “inhibited”.

Consider `CC(C)c1cc(C(=O)Nc2ccc(F)c(Cl)c2)no1` [Compound 4, N-(3-Chloro-4-fluorophenyl)-5-isopropylisoxazole-3-carboxamide], for which the EC50 in series [1] was found to be 1.8 µM. In addition, the “effect on SMN protein half-life” value in series [12] is on record as “increased”. Also, the “stabilization of SMN-luc fusion” value on SMN-luc fusion is reported as “stabilized”. The “effect on SMN mRNA expression and exon 7 inclusion” value in the series with SMN-luciferase mRNA [13] is listed as “did not alter SMN mRNA expression or exon 7 inclusion”. The “SMN expression in SMA-derived fibroblast” value in series [14] is recorded as “promoted increases”. Further, the in vivo activity entry in the series on severe SMA mice (SMNΔ7) is “inactive”.

The term Cmax denotes the maximum level reached in the sampled fluid or tissue. The solubility is the dissolved amount per volume that the medium holds. The low end stands for a poorly soluble substance, the high end for a readily soluble substance. Broadly, the EC50 is the concentration that produces a half-maximal response. Low readings indicate an effect from little substance, high ones a need for much substance.

The values above are taken from paper PMC5920559 (Journal of medicinal chemistry, 2017).
